# Test system: Artemia salina
# Settings: in vivo, 24 h
# Experimental: Alpha-Nemertides were prepared as described in Example 2, above, or by manual synthesis […] on 2-chlorotrityl resin as described in the Material and methods section below. […]. The brine shrimp assay is commonly used as toxicity assay, but is particularly suitable in the current work as a model system for crustaceans. In the first round of experiments Nemertides α-1, α-2, α-5, and α-6 were evaluated. […]. Artemia salina Assay of Alpha-Nemertides. 100 μl of sea water containing about 20-30 brine shrimps were added to each experimental well of a 96-well microplate. 100 μl of peptide solutions were then added to each well. As a control, some wells were filled with 100 μl of seawater containing shrimps and 100 μl milliQwater. The plates were covered and incubated in the dark at room temperature for 24 hours. After 24 hours, 10 second video clips of each well were filmed through a microscope. The shrimps were subsequently counted and categorized as either dead (not moving), affected (moving slowly, mostly at the bottom of the well) or normal (moving normally compared to the control at all levels of the well). The shrimps were then immobilized by addition of 100 μl of methanol. After 1 hour the total number of shrimps in each well was counted and the ratio (dead+affected)/total was calculated.
smiles,measurement,value
CC[C@H](C)[C@@H]1NC(=O)[C@@H](NC(=O)CN)CSSC[C@@H]2NC(=O)[C@@H]3CSSC[C@@H](C(=O)N[C@@H](CC(N)=O)C(=O)N4C[C@H](O)C[C@H]4C(=O)N4C[C@H](O)C[C@H]4C(=O)N[C@@H](CC(N)=O)C(=O)N[C@@H](CCC(N)=O)C(=O)O)NC(=O)[C@H](Cc4c[nH]cn4)NC(=O)[C@H](Cc4ccccc4)NC(=O)[C@H](CC(N)=O)NC(=O)[C@H](Cc4c[nH]c5ccccc45)NC(=O)CNC(=O)[C@H](CSSC[C@H](NC(=O)[C@H](Cc4ccccc4)NC(=O)[C@H](CO)NC(=O)CNC(=O)[C@H]([C@@H](C)O)NC(=O)[C@H](C)NC1=O)C(=O)N[C@@H]([C@@H](C)O)C(=O)N[C@@H](CC(C)C)C(=O)N[C@@H](CO)C(=O)N[C@@H](CCCCN)C(=O)NCC(=O)N3)NC(=O)[C@H](CC(N)=O)NC(=O)[C@H](CCCCN)NC(=O)[C@H]([C@@H](C)O)NC2=O [Nemertide α-5],IC50,< 1000 nM

# — US20190256564A1, “NEMERTEA-DERIVED BIOACTIVE COMPOUNDS” (priority 2016, published 2019)
